This is an account of results in PubChem BioAssay (NCI).

Some test systems named below: BT-549 breast; DU-145 prostate; ACHN renal; MDA-MB-231 breast; HOP-92 NSCLC; NCI-H460 lung; CAKI-1 renal; T-47D breast; NCI-H23 lung; OVCAR-8 ovarian.
Common to all, as to test: inhibition of tumour cell growth, NCI panel, 48 h

Structures are written as SMILES.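 Method: 48-hour compound exposure of cells in 96-well plates, five concentrations, linear interpolation of endpoints. GI50 = concentration required for 50% inhibition of growth. TGI: total growth inhibition.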 A value given as a limit tells only on which side of the number the result lay.

Take `CCOP(=O)(CC1OC(CO)C(O)C1O)OCC` (centres undefined): the TGI with BT-549 breast, with DU-145 prostate, with ACHN renal, in the assay on MDA-MB-231 breast, with HOP-92 NSCLC and with NCI-H460 lung was greater than 100 µM throughout. The TGI in the assay on CAKI-1 renal is greater than 100 µM; in the assay on T-47D breast it was greater than 100 µM; in the assay with NCI-H23 lung, greater than 64.1 µM.
Turning to `Clc1sc(Cl)c2c1[C@H](Br)C[C@@H]2Cl`, the TGI with BT-549 breast is 40.3 µM; in the assay on OVCAR-8 ovarian it was 99 µM; with DU-145 prostate, greater than 100 µM; with ACHN renal, 37.4 µM; in the assay with MDA-MB-231 breast, 51.3 µM; in the assay on NCI-H460 lung, greater than 100 µM. Besides, the TGI was 64.2 µM in the assay on CAKI-1 renal, greater than 100 µM in the assay on T-47D breast and 43.2 µM in the assay on NCI-H23 lung.
Consider `O=c1[nH]nc(-c2ccc([N+](=O)[O-])cc2)[nH]1`, for which the TGI with BT-549 breast, with OVCAR-8 ovarian, in the assay on DU-145 prostate, with ACHN renal, in the assay on HOP-92 NSCLC and in the assay with NCI-H460 lung was greater than 100 µM in each case. For the same molecule, the TGI in the assay on CAKI-1 renal, with T-47D breast and in the assay with NCI-H23 lung was greater than 100 µM throughout.
Consider `CCOC(=O)OC1(c2ccccc2)CCN(C)CC1`, for which the TGI in the assay with OVCAR-8 ovarian, with DU-145 prostate, in the assay with ACHN renal, in the assay on MDA-MB-231 breast, in the assay on HOP-92 NSCLC and in the assay on NCI-H460 lung was greater than 100 µM each time. The TGI in the assay with CAKI-1 renal, with T-47D breast and with NCI-H23 lung was greater than 100 µM each time.
On to `CC(=O)Oc1ccc2c(c1)O/C(=C\c1ccc(O)cc1)C2=O`, for which the TGI in the assay on BT-549 breast, in the assay on OVCAR-8 ovarian, in the assay on DU-145 prostate, in the assay with ACHN renal, with MDA-MB-231 breast and in the assay on NCI-H460 lung was greater than 100 µM in each case. In addition, the TGI with CAKI-1 renal, in the assay with T-47D breast and in the assay with NCI-H23 lung was greater than 100 µM in each case.
For `CCOC(=O)c1c(-c2ccc(OC)cc2)c(C#N)c(=S)n(C2OC(CO)C(O)C(O)C2O)c1C` (centres undefined), the TGI with OVCAR-8 ovarian, in the assay on DU-145 prostate, in the assay with MDA-MB-231 breast, in the assay on HOP-92 NSCLC, with CAKI-1 renal and in the assay on T-47D breast was greater than 100 µM throughout. In the assay on NCI-H23 lung, the TGI was greater than 100 µM.
In the case of `CC1=NN(c2cccc(Cl)c2)C2(C1=Cc1ccc(N(C)C)cc1)C(Cl)C(=O)N2c1nc2ccccc2s1` (centres undefined), the TGI in the assay on OVCAR-8 ovarian is greater than 100 µM; with DU-145 prostate it was greater than 100 µM; in the assay with ACHN renal, greater than 100 µM; in the assay with MDA-MB-231 breast, greater than 100 µM; in the assay with HOP-92 NSCLC, 64.7 µM; with NCI-H460 lung, greater than 100 µM. The TGI with CAKI-1 renal, in the assay with T-47D breast and with NCI-H23 lung was greater than 100 µM throughout.
On to `O/N=C/[C@H]1COC2(CCCCC2)O1`, for which the TGI with OVCAR-8 ovarian, with DU-145 prostate, with ACHN renal, in the assay on MDA-MB-231 breast, in the assay with HOP-92 NSCLC and in the assay on NCI-H23 lung was greater than 100 µM throughout.
On to `COc1ccc(C(=O)/C=C/c2ccc(OCCCCCCCCCCOc3ccc(/C=C/C(=O)c4ccc(OC)c(OC)c4)cc3)cc2)c(OC)c1`, for which the TGI in the assay on OVCAR-8 ovarian, in the assay on DU-145 prostate, with ACHN renal, in the assay with MDA-MB-231 breast, in the assay on NCI-H460 lung and in the assay on CAKI-1 renal was greater than 100 µM throughout. The molecule further registered a TGI in the assay with T-47D breast greater than 100 µM.
Regarding `CC1=[N+]([O-])C2(CCCC2)N(O)C1(C)C`, the TGI with OVCAR-8 ovarian, in the assay with DU-145 prostate, in the assay on ACHN renal, in the assay with MDA-MB-231 breast, with HOP-92 NSCLC and in the assay with NCI-H460 lung was greater than 100 µM in each case. Further, the TGI in the assay on CAKI-1 renal, in the assay with T-47D breast and in the assay with NCI-H23 lung was greater than 100 µM in each case.
Consider `Nn1nnc2ccccc21`, for which the TGI with BT-549 breast, with OVCAR-8 ovarian, in the assay with DU-145 prostate, in the assay with ACHN renal, in the assay on MDA-MB-231 breast and in the assay with HOP-92 NSCLC was greater than 100 µM in each case. Further, the TGI with NCI-H460 lung, in the assay with T-47D breast and with NCI-H23 lung was greater than 100 µM in each case.
With `O=C1c2cc3c(cc2-c2c1c1cc(F)c(F)cc1c(=O)n2C[C@H](O)CO)OCO3`, the GI50 in the assay with BT-549 breast is 0.0727 µM; with OVCAR-8 ovarian, 0.0724 µM; in the assay with DU-145 prostate it was 0.0407 µM; in the assay on MDA-MB-231 breast, 0.378 µM; with NCI-H460 lung, 0.031 µM; in the assay with CAKI-1 renal it was 0.0288 µM. For the same molecule, in the assay with NCI-H23 lung, the GI50 is 0.0611 µM. For the same molecule, the TGI is 2.22 µM in the assay on BT-549 breast; greater than 100 µM in the assay with OVCAR-8 ovarian; greater than 100 µM in the assay with DU-145 prostate; 3.18 µM in the assay on MDA-MB-231 breast; 0.141 µM in the assay with NCI-H460 lung; 0.206 µM in the assay on CAKI-1 renal. In the assay on NCI-H23 lung, this molecule gave a TGI of 0.613 µM.
For the molecule `O=c1n(CCCN2CCOCC2)nc2n1-c1ccc3ccccc3c1SC2`, the TGI in the assay on BT-549 breast was greater than 100 µM; in the assay on OVCAR-8 ovarian it was greater than 100 µM; in the assay on DU-145 prostate, greater than 100 µM; in the assay with HOP-92 NSCLC it was greater than 100 µM; with NCI-H460 lung, 81.1 µM; with CAKI-1 renal it was greater than 100 µM. Besides, the TGI in the assay on T-47D breast is greater than 100 µM.
Consider `CC(C)NC(=O)OCc1c(COC(=O)NC(C)C)n(C)c2c1ccc1cc(Cl)c(Cl)cc12`, for which the TGI with BT-549 breast was found to be 30.7 µM; in the assay on OVCAR-8 ovarian, 23.8 µM; in the assay on ACHN renal it was 24 µM; with MDA-MB-231 breast it was 25.3 µM; in the assay on HOP-92 NSCLC it was 24.3 µM; with NCI-H460 lung, 16.3 µM. In addition, the TGI in the assay on CAKI-1 renal was found to be 12.6 µM; with T-47D breast, 18.8 µM; in the assay on NCI-H23 lung, 31.1 µM.
As to `CC(=O)OC1COC(N2c3ccccc3[C@@H]3CCc4c([nH]c5ccccc45)[C@@H]32)C(OC(C)=O)C1OC(C)=O` (mixture of isomers), the TGI in the assay with BT-549 breast, in the assay on DU-145 prostate, in the assay on MDA-MB-231 breast, in the assay with HOP-92 NSCLC, in the assay on NCI-H460 lung and in the assay with CAKI-1 renal was greater than 100 µM each time. Also, the TGI with NCI-H23 lung was greater than 100 µM.
